According to US10047105B2, “Gyrase inhibitors” (Merck Sharp & Dohme Corp., priority 2009, dated 2018):
Converted amounts (≈) assume the structure as drawn.

Columns and labels:
Type in all cases: cell-based
S. aureus ATCC 13709 = assay: MIC, antibacterial potency, S. aureus; settings: S. aureus (SA); in µg/mL
E. coli 8 ATCC 25922 = assay: MIC, E. coli 8 (wt); settings: E. coli 8 (EC8)
S. pneumoniae ATCC 51916 = assay: MIC, S. pneumoniae; settings: S. pneumoniae (Spn52); in µg/mL

| Structure (SMILES) | MIC, SA (S. aureus ATCC 13709) | MIC EC8 (E. coli 8 ATCC 25922) | MIC Spn52 (S. pneumoniae ATCC 51916) |
| --- | --- | --- | --- |
| CCc1[nH]c2nc(Sc3cncc(S(=O)(=O)N(C)C)c3)nc(N3CC[C@@H](N)C3)c2c1C [701,182] | >64 | > 64 µg/mL | >64 |
| CCc1[nH]c2nc(Oc3cnc(C)nc3)nc(Oc3cnc(C)nc3)c2c1Br [701,254] | <=0.5 | > 64 µg/mL | <=0.5 |
| CCc1[nH]c2nc(Sc3ccc4ccc[n+]([O-])c4c3)nc(N3CC[C@@H](N)C3)c2c1Cl [700,993] | <=0.5 | 16 µg/mL (≈ 36.3 µM) | 2 |
| CCc1[nH]c2nc(Sc3cncc(C#N)c3)nc(N3CC4C(C3)C4(N)C(N)=O)c2c1Cl (stereo not drawn) [700,969] | <=0.5 | > 64 µg/mL | 2 |
| CCc1[nH]c2nc(Oc3cnc4c(c3)ncn4C)nc(Oc3cnc4c(c3)ncn4C)c2c1Br [700,939] | <=0.5 | > 64 µg/mL | 1 |
| CCc1[nH]c2nc(Sc3ccc4cc5c([n+]([O-])c4c3)CCNC5)nc(N3CC[C@@H](N)C3)c2c1Cl [700,940] | 2 | 8 µg/mL (≈ 16.1 µM) | 8 |
| CCc1[nH]c2nc(Sc3ccc4c(N5CC(CN)C5)nc(C)nc4c3)nc(N3CC4C(C3)C4(N)C(N)=O)c2c1Cl (stereo not drawn) [700,956] | 8 | > 64 µg/mL | 32 |
| CCc1[nH]c2nc(Oc3cnc(N)nc3)nc(N3CC(CN(C)C)C3)c2c1Cl [701,112] | 16 | > 64 µg/mL | 32 |
| CCc1[nH]c2nc(Sc3cnc4nccnc4c3)nc(N(CCN)CC(C)c3ccccc3)c2c1Cl (stereo not drawn) [701,147] | 32 | > 64 µg/mL | 64 |
| CCc1[nH]c2nc(Sc3cnc4cccnc4c3)nc(N3CCC(CNS(C)(=O)=O)C3)c2c1Cl (stereo not drawn) [701,042] | <=0.5 | > 64 µg/mL | 1 |
| CCc1[nH]c2nc(Sc3ccc4c(Oc5cccc(CNC)c5)cc(C)nc4c3)nc(N3CC[C@@H](N)C3)c2c1Cl [700,912] | 8 | 32 µg/mL (≈ 55.7 µM) | >64 |
| N[C@@H]1CCN(c2nc(Sc3cnc4cccnc4c3)nc3[nH]c(CC(F)(F)F)c(Cl)c23)C1 [701,209] | 2 | > 64 µg/mL | 4 |
| NC1CN(c2nc(Sc3cnc4cccnc4c3)nc3[nH]c(C4CC4)c(Cl)c23)C1 [701,065] | 8 | 16 µg/mL (≈ 37.7 µM) | 4 |
| CCc1[nH]c2nc(Oc3cncc(C(=O)OC)c3)nc(N3CC4C(N)C4C3)c2c1Cl (stereo not drawn) [701,163] | >64 | > 64 µg/mL | >64 |
| CCc1[nH]c2nc(Sc3cnc4cccnc4c3)nc(N3C[C@@H](N)[C@@H](C(=O)N[C@@H](CO)c4ccccc4)C3)c2c1Cl [701,022] | 4 | > 64 µg/mL | 2 |
| CCc1[nH]c2nc(Oc3ccc4c(N5CC(N)C5)ncnc4c3)nc(Oc3cccc(C#N)c3)c2c1Br [700,944] | 8 | > 64 µg/mL | 8 |
| CCc1[nH]c2nc(Oc3cnc4c(c3)ncn4C)nc(Oc3ccc4nccnc4c3)c2c1Br [701,030] | <=0.5 | > 64 µg/mL | <=0.5 |
| CCc1[nH]c2nc(Sc3cnc4cccnc4c3)nc(N3CCNCCNCC3)c2c1Cl [701,003] | >64 | > 64 µg/mL | 32 |
| CCOC(=O)C(=O)NCC1CCN(c2nc(Sc3cnc4cccnc4c3)nc3[nH]c(CC)c(Cl)c23)C1 (stereo not drawn) [701,043] | 1 | > 64 µg/mL | >64 |
| CCc1[nH]c2nc(Sc3cnc4cccnc4c3)nc(N3C[C@H](N)[C@H](C(=O)Nc4nccs4)C3)c2c1Cl [701,024] | 2 | > 64 µg/mL | 2 |
| CCc1[nH]c2nc(Oc3cccc(C#N)c3)nc(C(C)NCCO)c2c1Cl (stereo not drawn) [700,953] | >32 | > 32 µg/mL | >32 |
| CCc1[nH]c2nc(Oc3ccc4nccnc4c3)nc(N3CC[C@@H](N)C3)c2c1Cl [701,000] | 4 | 64 µg/mL (≈ 156 µM) | 8 |
| CCc1[nH]c2nc(Oc3ccc4nccnc4c3)nc(N3CC(O)C3)c2c1Cl [700,948] | <=0.5 | > 16 µg/mL | 4 |
| CCc1[nH]c2nc(Oc3ccc4nccnc4c3)nc(C)c2c1Cl [701,232] | 1 | > 64 µg/mL | 4 |
| CCc1[nH]c2nc(Oc3ccc4nccnc4c3)nc(Oc3ccc4ncn(C)c4c3)c2c1Cl [701,007] | <=0.5 | > 64 µg/mL | 2 |
| CCc1[nH]c2nc(Sc3cnc4cccnc4c3)nc(N3C[C@H](N)[C@H](C(=O)NCC(O)CO)C3)c2c1Cl (stereo partly drawn) [701,019] | >32 | > 32 µg/mL | >32 |
| Cc1[nH]c2nc(Sc3cnc4nccnc4c3)nc(N3CC4C(N)C4C3)c2c1C (stereo not drawn) [701,117] | 8 | > 64 µg/mL | 8 |

| Structure (SMILES) | MIC, SA (S. aureus ATCC 13709) | MIC EC8 (E. coli 8 ATCC 25922) | MIC Spn52 (S. pneumoniae ATCC 51916) |
| --- | --- | --- | --- |
| CCc1[nH]c2nc(Sc3cncc(S(=O)(=O)N(C)C)c3)nc(N3CC4C(N)C4C3)c2c1C (stereo not drawn) [701,183] | 16 | > 64 µg/mL | 64 |
| CCc1[nH]c2nc(Oc3cnc4ccoc4c3)nc(N3CC4CNC4C3)c2c1Cl (stereo not drawn) [700,936] | 64 | > 64 µg/mL | 32 |
| CCc1[nH]c2nc(Sc3cnc4ccc[n+]([O-])c4c3)nc(N3CCC4CNC4C3)c2c1Cl (stereo not drawn) [701,116] | <=0.5 | 16 µg/mL (≈ 34.2 µM) | 2 |
| CCc1[nH]c2nc(Oc3ccc4nccnc4c3)nc(OC3CCN(C(=O)OC(C)(C)C)CC3)c2c1Cl [701,289] | 16 | > 64 µg/mL | >64 |
| NC1C2CN(c3nc(Sc4cnc5nccnc5c4)nc4[nH]c(C5CC5)c(Cl)c34)CC12 (stereo not drawn) [700,976] | 4 | 8 µg/mL (≈ 17.7 µM) | 2 |
| N[C@@H]1CCN(c2nc(Sc3cnc4ccc[n+]([O-])c4c3)nc3[nH]c(C4CC4)c(Cl)c23)C1 [701,075] | 8 | 8 µg/mL (≈ 17.6 µM) | 8 |
| CCc1[nH]c2nc(Sc3cnc4ccc[n+]([O-])c4c3)nc(N3CC(O)C3)c2c1Cl [701,027] | <=0.5 | > 64 µg/mL | 1 |
| CCc1[nH]c2nc(Oc3cncc(C#N)c3)nc(Oc3cc(C#N)cc(OC)c3)c2c1Br [700,933] | 2 | > 64 µg/mL | 4 |
| CCc1[nH]c2nc(Sc3cnc4cccnc4c3)nc(N3CC4C(N)C4C3)c2c1C (stereo not drawn) [701,143] | <=0.5 | 64 µg/mL (≈ 153 µM) | 2 |
| CCc1[nH]c2nc(Sc3cnc4ccc[n+]([O-])c4c3)nc(N3CC4C(N)C4C3)c2c1Cl (stereo not drawn) [701009-2] | <=0.5 | 2 µg/mL (≈ 4.41 µM) | <=0.5 |
| CCNC(=O)NC1C2CN(c3nc(Sc4cnc5cccnc5c4)nc4[nH]c(CC)c(Cl)c34)CC21 (stereo not drawn) [701,028] | <=0.5 | > 64 µg/mL | <=0.5 |
| CCc1[nH]c2nc(Sc3cnc4nccnc4c3)nc(N3CCC4CN[C@H]4C3)c2c1Cl (stereo partly drawn) [701,102] | <=0.5 | 16 µg/mL (≈ 35.3 µM) | 1. |
| CCc1[nH]c2nc(Sc3cnc4cccnc4c3)nc(N3CCC4CNC4C3)c2c1Cl (stereo not drawn) [701,115] | <=0.5 | 16 µg/mL (≈ 35.4 µM) | <=0.5 |
| CCc1[nH]c2nc(Oc3ccc4nccnc4c3)ncc2c1Cl [701,238] | 4 | > 64 µg/mL | 32 |
| CCc1[nH]c2nc(Sc3ccc4c(c3)c(=O)c(C#N)cn4CCN(C)C)nc(N3CC[C@@H](N)C3)c2c1Cl [700,928] | 2 | 16 µg/mL (≈ 29.8 µM) | 8 |
| CCc1[nH]c2nc(Oc3ccc4nccnc4c3)nc(N(C)C)c2c1Cl [700,962] | <=0.5 | > 8 µg/mL | 2 |
| CCc1[nH]c2nc(Sc3ccc4ccc[n+]([O-])c4c3)nc(N3CC4C(N)C4C3)c2c1Cl (stereo not drawn) [700,994] | <=0.5 | 8 µg/mL (≈ 17.7 µM) | <=0.5 |
| CCc1[nH]c2nc(Sc3ccc(/C=C/C(=O)O)c(F)c3)nc(N3CC[C@@H](N)C3)c2c1Cl [701,002] | 4 | > 64 µg/mL | >64 |
| CCc1[nH]c2nc(Sc3cnc4cccnc4c3)nc(N3CCC(CNC(=O)c4nccs4)C3)c2c1Cl (stereo not drawn) [701,047] | <=0.5 | > 64 µg/mL | <=0.5 |
| CCOC(=O)NCC1CCN(c2nc(Sc3cnc4cccnc4c3)nc3[nH]c(CC)c(Cl)c23)C1 (stereo not drawn) [701,035] | <=0.5 | > 64 µg/mL | <=0.5 |
| CCc1[nH]c2nc(Oc3ccc[n+]([O-])c3)nc(Oc3ccc[n+]([O-])c3)c2c1Br [701,092] | <=0.5 | > 64 µg/mL | 2 |
| CCc1[nH]c2nc(Oc3ccc4ccc[n+]([O-])c4c3)nc(Oc3ccc4ccc[n+]([O-])c4c3)c2c1Br [701,056] | 4 | > 64 µg/mL | 8 |
| CCc1[nH]c2nc(Sc3cnc4ccc[n+]([O-])c4c3)nc(N3CC(N)C3)c2c1Cl [701,036] | <=0.5 | 16 µg/mL (≈ 37.4 µM) | 2 |
| CCc1[nH]c2nc(Sc3cnc4nccnc4c3)nc(N3CCC(CC)(NC(=O)C(F)(F)F)C3)c2c1Cl (stereo not drawn) [701,120] | 4 | > 64 µg/mL | 32 |
| CCc1[nH]c2nc(Sc3ccc4c(N5CC(N)C5)ncnc4c3)nc(N3C[C@@H]4[C@H](C3)[C@@]4(N)C(N)=O)c2c1Cl [700,960] | 2 | > 32 µg/mL | 2 |
| CCc1[nH]c2nc(Sc3cncc(S(=O)(=O)N(C)C)c3)nc(N3CC4C(N)C4C3)c2c1Cl (stereo not drawn) [701,181] | 2 | > 64 µg/mL | 8 |
